Square brackets hold non-standard residues; d marks the D form. Ends that are not written are not given here. Met(O) = CS(=O)CC[C@H](N)C(=O)O
Assays:
[1] = tested on: murine gastric smooth muscles; assay: Inhibition of carbachol-induced constriction of murine gastric smooth muscle (Magnus apparatus); set-up: species or system ICR mice; details: final concentration 10^−6 M, peptide 1 = 100%
[2] = Helical content from circular dichroism spectra; type: physicochemical; details: 20 mM Tris-HCl buffer (pH 7.4), calculation by Greenfield et al.
Protocol: VIP (peptide 1, SEQ ID NO: 2), peptide 7 (SEQ ID NO: 8) corresponding to 25 residues at the N-terminus of VIP, and peptide 8 (SEQ ID NO: 9), which is a peptide 7 derivative with its methionine-17 being oxidized, were dissolved in a 20 mM Tris-HCl buffer (pH 7.4), and the circular dichroism spectra thereof were examined using the Jasco J-720 (Jasco Corporation). According to analytical calculation of higher-order structure by Greenfield et al., the helical content of peptide 1 was about 50% (FIG. 2).

For “His-Ser-Asp-Ala-Val-Phe-Thr-Asp-Asn-Tyr-Thr-Arg-Leu-Arg-Lys-Gln-Met(O)-Ala-Val-Lys-Lys-Tyr-Leu-Asn-Ser-NH2 (HSDAVFTDNYTRLRKQ[Met(O)]AVKKYLNS-NH2; N-terminus assumed; SMILES CC(C)C[C@H](NC(=O)[C@H](Cc1ccc(O)cc1)NC(=O)[C@H](CCCCN)NC(=O)[C@H](CCCCN)NC(=O)[C@@H](NC(=O)[C@H](C)NC(=O)[C@H](CCS(C)=O)NC(=O)[C@H](CCC(N)=O)NC(=O)[C@H](CCCCN)NC(=O)[C@H](CCCNC(=N)N)NC(=O)[C@H](CC(C)C)NC(=O)[C@H](CCCNC(=N)N)NC(=O)[C@@H](NC(=O)[C@H](Cc1ccc(O)cc1)NC(=O)[C@H](CC(N)=O)NC(=O)[C@H](CC(=O)O)NC(=O)[C@@H](NC(=O)[C@H](Cc1ccccc1)NC(=O)[C@@H](NC(=O)[C@H](C)NC(=O)[C@H](CC(=O)O)NC(=O)[C@H](CO)NC(=O)[C@@H](N)Cc1c[nH]cn1)C(C)C)[C@@H](C)O)[C@@H](C)O)C(C)C)C(=O)N[C@@H](CC(N)=O)C(=O)N[C@@H](CO)C(N)=O) [Peptide 8]”, the “maximal inhibition of murine gastric smooth muscle constriction (activity, in words)” value [1] was “significantly attenuated compared to that of peptide 7” and the helical content [2] was “reduced to about half that of peptide 1”.

— patent publication US7332473B2, “Peptides and medicinal compositions containing the same” (priority 2002, dated 2008)
